US8853234B2, “Quinolone analogs and methods related thereto” (Senhwa Biosciences, Inc., priority 2007, dated 2014)

How the values were obtained:
[1] = tested on: HCT-116 human colorectal carcinoma cells; assay: Alamar Blue (AB) cell proliferation assay, HCT-116; type: cell-based; settings: 96 h, Alamar Blue cell proliferation inhibition, HCT-116, four days
Procedure: A representative cell-proliferation assay protocol using Alamar Blue dye (stored at 4° C., use 20 ul per well) is described hereafter.
96-Well Plate Setup and Compound Treatment
a. Split and trypsinize cells.
b. Count cells using hemocytometer.
c. Plate 4,000-5,000 cells per well in 100 μl of medium and seed into a 96-well plate according to the following plate layout. Add cell culture medium only to wells B10 to B12. Wells B1 to B9 have cells but no compound added.
d. Add 100 μl of 2× drug dilution to each well in a concentration shown in the plate layout above. At the same time, add 100 μl of media into the control wells (wells B10 to B12). Total volume is 200 μl/well.
e. Incubate four (4) days at 37° C., 5% CO2 in a humidified incubator.
f. Add 20 μl Alamar Blue reagent to each well.
g. Incubate for four (4) hours at 37° C., 5% CO2 in a humidified incubator.
h. Record fluorescence at an excitation wavelength of 544 nm and emission wavelength of 590 nm using a microplate reader.
In the assays, cells are cultured with a test compound for approximately four days, the dye then is added to the cells and fluorescence of […] dye is detected after approximately four hours. Different types of cells can be utilized in the assays (e.g., HCT-116 human colorectal carcinoma cells, PC-3 human prostatic cancer cells and MiaPaca human pancreatic carcinoma cells). Anti-proliferative effects of representative compounds are provided hereafter.
Representative cassette dosing and bioavailability data are given in Table 8, along with cell proliferation inhibition (from Alamar Blue (AB) assay (e.g., Example 45 herein) and rRNA inhibition (from quantitative PCR (QPCR) assay (e.g., Example 46 herein).

rDNA = assay: Quantitative PCR (QPCR) assay, rRNA inhibition (rDNA); type: cell-based; design: Selectivity: reference not given here; settings: for Selectivity: not defined in the patent; for IC50: rRNA inhibition from quantitative PCR assay
Source text: In a specific assay embodiment, provided herein is a method for identifying a molecule that modulates ribosomal RNA (rRNA) synthesis, which comprises: contacting cells with a test molecule of Formula (I), (II), (III), (IV), (V), (VI), (VI′), (VII), or (VIII), contacting a ribosomal nucleotide sequence with one or more primers that amplify a portion thereof and a labeled probe that hybridizes to the amplification product, and detecting the amount of the amplification product by hybridization of the labeled probe, whereby a test molecule that reduces or increases the amount of amplification product is identified as a molecule that modulates rRNA synthesis. The labeled probe in some embodiments is added after the primers are added and the rRNA is amplified, and in certain embodiments, the labeled probe and the primers are added at the same time. The portion of ribosomal nucleotide sequence amplified sometimes is at the 5′ end of rDNA.
Real-time quantitative PCR (QPCR) method may be used to detect the changes of the target c-myc and the endogenous reference GAPDH gene copies in the same tube. Generally, cells (15,000 cells/well) are seeded on 96 well flat bottom plates (Corning, N.Y.) and incubated under normal growth conditions for overnight. The next day, the culture medium is exchanged for that containing anticancer drugs at various concentrations and incubated for 4 hrs in a humidified atmosphere of 5% CO2 at 37° C. Total RNA (tRNA) is extracted using the RNeasy 96 Kit (QIAGEN, CA). The concentration of the tRNA is determined by the RiboGreen RNA Quantitation Reagent (Molecular Probes, OR).
A reverse-transcription (RT) reaction may be conducted using 50 ng of tRNA from each well in a 25 μl reaction containing 1× TaqMan RT buffer, 2.5 uM random hexamers, 5.5 mM MgCl2, 0.5 mM each deoxynucleoside triphosphate (dNTP), 30 U MultiScribe Reverse Transcriptase, and 10 U RNase inhibitor. RT reactions are incubated for 10 min at 25° C., reverse-transcribed for 30 min at 48° C., inactivated for 5 min at 95° C., and placed at 4° C. All RT reagents may be purchased from Applied Biosystems, CA.
Real-Time QPCR reaction may be performed in a 50 μl reaction containing the 5 μl of cDNA, 1× Universal PCR Master Mix, 1× c-myc Pre-Developed Primers and Probe set, and 0.8×GAPDH Pre-Developed Primers and Probe set. Because of the relative abundance of GAPDH gene in Hela, GAPDH primers and probe concentration may be adjusted to get accurate threshold cycles (CT) for both genes in the same tube. The threshold cycle (CT) indicates the fractional cycle number at which the amount of amplified target reaches a fixed threshold. By doing so, the GAPDH amplification is stopped before it can limit the common reactants available for amplification of the c-myc. The ΔRn value represents the normalized reporter signal minus the baseline signal. ΔRn increases during PCR as amplicon copy number increases until the reaction approaches a plateau.
The c-myc probe is labeled with 6FAM™ dye-MGB and the GAPDH probe is labeled with VIC™ dye-MTB. Preincubation is performed for 2 min at 50° C. to activate AmpErase UNG enzyme and then for 10 min at 95° C. to activate AmpliTaq DNA Polymerase. DNA is amplified for 40 cycles of 15 sec at 95° C. and 1 min at 60° C. Human c-myc and GAPDH cDNA are amplified, detected, and quantitated in real time using the ABI Prism 7000 Sequence Detection system (Applied Biosystems, CA), which is set to detect both 6-FAM and VIC reporter dyes simultaneously.
The data may be analyzed using the ABI PRISM Sequence Detection System and Microsoft Excel. Relative quantitation is done using the standard curve and comparative CT method at the same time, and both methods gave equivalent results. The cycle at which the amplification plot crosses the CT is known to accurately reflect relative mRNA values. (See, Heid, et al., Genome Res. (1996) 6:986-994; Gibson, et al., Genome Res. (1996) 6:995-1001). […]

| SMILES | IC50 [1] [µM] | Selectivity (rDNA) | IC50 (rDNA) [µM] |
| --- | --- | --- | --- |
| Cn1c2ccccc2n2c3nc(N4CCOCC4)c(F)cc3c(=O)c(C(=O)NCCN3CCCC3)c12 | 0.307 | 7 | 0.318 |
| O=C(NCCN1CC=CC1)c1c(=O)c2ccc(N3CCOCC3)nc2n2c1sc1ccccc12 | 0.13 | 22 | 0.064 |
| CN1CCC(N(C)C(=O)c2c(=O)c3cc(F)c(N4CCOCC4)nc3n3c2sc2ccccc23)C1 (stereo not drawn) | 0.174 | 5 | 0.381 |
| O=C(NCC1CCCN1)c1c(=O)c2cc(F)c(N3CCOCC3)nc2n2c1sc1ccccc12 (stereo not drawn) | 0.009 | 25 | 0.016 |
| O=C(NCCNCCF)c1c(=O)c2ccc(N3CCOCC3)nc2n2c1sc1ccccc12 | 0.135 | 48 | 0.059 |
| Cn1c2ccccc2n2c3nc(N4CCOCC4)ccc3c(=O)c(C(=O)NCCN3CCCC3)c12 | 0.075 | 3 | 0.261 |
| O=C(c1c(=O)c2ccc(N3CCOCC3)nc2n2c1sc1ccccc12)N1CCN(c2ncccn2)CC1 | 0.461 | 13 | 0.578 |
| O=C(NCCn1ccnc1)c1c(=O)c2ccc(N3CCOCC3)nc2n2c1sc1ccccc12 | 0.473 | 24 | 0.431 |
| O=C(NCCN1CC=CC1)c1c(=O)c2cc(F)c(N3CCOCC3)nc2n2c1sc1ccccc12 | 0.392 | 3 | 0.042 |
| O=C(NCCNC1CC1)c1c(=O)c2ccc(N3CCOCC3)nc2n2c1sc1ccccc12 [drawing 604] | 0.065 | 39 | 0.1 |
| CN1CCCC1CCNC(=O)c1cn2c3c(c(N4CCOCC4)c(F)cc3c1=O)Oc1ccccc1-2 (stereo not drawn) | 0.389 | 12 | 0.405 |
| CN1CCN(c2ccc3c(=O)c(C(=O)NC4CC4)c4n(C)c5ccccc5n4c3n2)CC1 | 0.202 | 4 | 0.127 |
| CN1CCCC1CCNC(=O)c1c(=O)c2ccc(N3CCOCC3)nc2n2c1sc1ccccc12 (stereo not drawn) | 0.055 | 42 | 0.249 |
| Cn1c2ccccc2n2c3nc(N4CCOCC4)c(F)cc3c(=O)c(C(=O)N3CCN4CCCC4C3)c12 (stereo not drawn) | 0.843 | 10 | 0.841 |
| Cc1cnc(CNC(=O)c2c(=O)c3ccc(N4CCN(C)CC4)nc3n3c2sc2ccccc23)cn1 [drawing 619] | 0.391 | 13 | 0.069 |
| O=C(NCCN1CC=CCC1)c1c(=O)c2ccc(N3CCOCC3)nc2n2c1sc1ccccc12 | 0.098 | 64 | 0.032 |
| CN1CCCC(NC(=O)c2c(=O)c3cc(F)c(N4CCOCC4)nc3n3c2sc2ccccc23)C1 (stereo not drawn) | 0.027 | 862 | 0.029 |
| CN1CCCC1CCNC(=O)c1c(=O)c2cc(F)c(N3CCOCC3)nc2n2c3ccccc3n(C)c12 (stereo not drawn) | 0.21 | 8 | 0.521 |
| O=C(c1c(=O)c2ccc(N3CCOCC3)nc2n2c1sc1ccccc12)N1CCN(c2ccccn2)CC1 | 0.21 | 17 | 0.723 |

| SMILES | IC50 [1] [µM] | Selectivity (rDNA) | IC50 (rDNA) [µM] |
| --- | --- | --- | --- |
| Cn1cncc1CNC(=O)c1c(=O)c2ccc(N3CCOCC3)nc2n2c1sc1ccccc12 | 0.174 | 60 | 0.262 |
| CN1CCCCC1CNc1ccc2c(=O)c(C(=O)NCc3ccncc3)c3sc4ccccc4n3c2n1 (stereo not drawn) | 0.008 | 39 | 0.067 |
| CN1CCN(c2nc3c(cc2F)c(=O)c(C(=O)NCc2cn(C)cn2)c2sc4ccccc4n23)CC1 | 0.303 | 69 | 0.139 |
| O=C(NCCNCC1CCCO1)c1c(=O)c2ccc(N3CCOCC3)nc2n2c1sc1ccccc12 (stereo not drawn) | 0.116 | 119 | 0.04 |
| O=C(NCCN1CCCC1)c1c(=O)c2ccc(N3CCOCC3)nc2n2c1sc1ccccc12 | 0.059 | 162 | 0.052 |
| CN1CCCC1CNC(=O)c1c(=O)c2cc(F)c(N3CCOCC3)nc2n2c1sc1ccccc12 (stereo not drawn) | 0.128 | 45 | 0.383 |
| Cn1ccnc1CNC(=O)c1c(=O)c2cc(F)c(N3CCOCC3)nc2n2c1sc1ccccc12 | 0.199 | 11 | 0.134 |
| O=C(NCCNC1CCC1)c1c(=O)c2ccc(N3CCOCC3)nc2n2c1sc1ccccc12 | 0.286 | 16 | 0.176 |
| Cn1ccnc1CNC(=O)c1c(=O)c2ccc(N3CCOCC3)nc2n2c1sc1ccccc12 | 0.145 | 9 | 0.173 |
| O=C(NCCN1CCCC1)c1c(=O)c2cc(F)c(N3CCOCC3)nc2n2c1sc1ccccc12 | 0.081 | 70 | 0.127 |
| CN1CCCC1CCNC(=O)c1c(=O)c2cc(F)c(N3CCOCC3)nc2n2c1sc1ccccc12 (stereo not drawn) | 0.337 | 10 | 0.892 |
| O=C(NCCN1CCC(O)C1)c1c(=O)c2cc(F)c(N3CCOCC3)nc2n2c1sc1ccccc12 (stereo not drawn) | 0.055 | 10 | 0.01 |
| O=C(NCCN1CCOCC1)c1c(=O)c2ccc(N3CCOCC3)nc2n2c1sc1ccccc12 | 0.454 | 16 | 0.496 |
| CN1CCCN(C(=O)c2c(=O)c3cc(F)c(N4CCOCC4)nc3n3c2sc2ccccc23)CC1 | 0.3 | 10 | 0.233 |
| CN1CCN(C(=O)c2c(=O)c3cc(F)c(N4CCOCC4)nc3n3c2sc2ccccc23)CC1 | 0.386 | 7 | 1.15 |
| O=C(NCCNC1CC1)c1c(=O)c2cc(F)c(N3CCOCC3)nc2n2c1sc1ccccc12 | 0.132 | 53 | 0.248 |
| O=C(NCCN1CC=CC1)c1cn2c3c(c(N4CCC(c5cnccn5)C4)c(F)cc3c1=O)Oc1cc3ccccc3cc1-2 (stereo not drawn) | 0.398 | 24 | 1.04 |
| Cc1nccn1CCNC(=O)c1c(=O)c2ccc(N3CCOCC3)nc2n2c1sc1ccccc12 | 0.166 | 21 | 0.084 |
| CN1CCCCC1CNC(=O)c1c(=O)c2ccc(N3CCOCC3)nc2n2c1sc1ccccc12 (stereo not drawn) | 0.006 | 2778 | 0.009 |
